In brackets after ≈: the same amount, converted by molar mass. Like-named read-outs stand apart in the source and are kept apart here.
Key:
Experiment in all cases: microbe, parasite or virus in culture
Enterococcus faecalis 30 = test system: T1, Enterococcus faecalis 30; set-up: CLSI broth microdilution MIC in MHB-II; details: Enterococcus faecalis, 30, 18 h, read-out: MIC
T1 construct: 30
Method in brief: (§1)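 Broth microdilution per CLSI in MHB-II, inoculum 5 × 10^5 cfu/mL. Compounds were serially 2-fold diluted in DMSO at 100-fold final concentration and added to give under 1% DMSO; plates incubated 37 °C for 18 h before MIC reading. Values are the highest of three trials, or from a single trial for some compounds.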

[1] = test system: T2, Staphylococcus aureus #2935; set-up: CLSI broth microdilution MIC in MHB-II; details: Staphylococcus aureus, 18 h, read-out: MIC
T2 construct: #2935
Method in brief: as §1

[2] = test system: T3, Staphylococcus aureus #2110; set-up: CLSI broth microdilution MIC in MHB-II; details: Staphylococcus aureus, 18 h, read-out: MIC
T3 construct: #2110
Method in brief: as §1

Enterococcus faecalis 29 = test system: T4, Enterococcus faecalis 29; set-up: CLSI broth microdilution MIC in MHB-II; details: Enterococcus faecalis, 29, 18 h, read-out: MIC
T4 construct: 29
Method in brief: as §1

Enterococcus faecium 2 = test system: Enterococcus faecium 2; set-up: CLSI broth microdilution MIC in MHB-II; details: Enterococcus faecium, 2, 18 h, read-out: MIC
Method in brief: as §1

Enterococcus faecalis 25 = test system: T5, Enterococcus faecalis 25; set-up: CLSI broth microdilution MIC in MHB-II; details: Enterococcus faecalis, 25, 18 h, read-out: MIC
T5 construct: 25
Method in brief: as §1

Enterococcus faecalis 24 = test system: T6, Enterococcus faecalis 24; set-up: CLSI broth microdilution MIC in MHB-II; details: Enterococcus faecalis, 24, 18 h, read-out: MIC
T6 construct: 24
Method in brief: as §1

E. faecium ATCC 35667 = test system: T7, E. faecium ATCC 35667; set-up: CLSI broth microdilution MIC in MHB-II, single trial; details: Enterococcus faecium, ATCC35667, 18 h
T7 construct: ATCC 35667
Procedure: (§2) MICs were determined by a microdilution broth method as recommended by the CLSI with MHB-II. For MICs of stable analogues, a 2-fold dilution of each compound was prepared in DMSO at 100-fold of the final concentration. The strains were inoculated with 5 × 10^5 cfu/mL in 96-well plates (each 100 μL/well), and 1 μL of DMSO solutions of the samples were added (contained less than 1% DMSO). The plates were incubated at 37 °C for 18 h and then MICs were determined. MICs of stable analogues in Table 1 were the highest value in three trials. MICs in Supplementary Table 1 were determined in one trial.

[3] = test system: T8, E. faecalis(VRE) ATCC 51299; set-up: CLSI broth microdilution MIC in MHB-II, single trial; details: Enterococcus faecalis, 18 h
T8 construct: ATCC 51299 (VRE)
Procedure: as §2

[4] = test system: T9, Staphylococcus aureus MRSA JE2; set-up: CLSI broth microdilution MIC in MHB-II, single trial; details: 18 h
T9 construct: JE2 (MRSA)
Procedure: as §2

[5] = test system: T10, E. faecium(VRE) ATCC 51858; set-up: CLSI broth microdilution MIC in MHB-II, single trial; details: Enterococcus faecium, 18 h
T10 construct: ATCC 51858 (VRE)
Procedure: as §2

[6] = test system: T11, E. faecium(VRE) ATCC 51559; set-up: CLSI broth microdilution MIC in MHB-II, single trial; details: Enterococcus faecium, 18 h
T11 construct: ATCC 51559 (VRE)
Procedure: as §2

S. aureus ATCC 29213 [7] = test system: T12, S. aureus ATCC 29213; set-up: CLSI broth microdilution MIC in MHB-II, single trial; details: Staphylococcus aureus, ATCC29213, 18 h
T12 construct: ATCC 29213
Procedure: as §2

E. coli ATCC 25922 = test system: T13, E. coli ATCC 25922; details: Escherichia coli, ATCC25922
T13 construct: ATCC 25922
Procedure: (§3) MICs were determined by a microdilution broth method as recommended by the CLSI with MHB-II. For MICs of stable analogues, a 2-fold dilution of each compound was prepared in DMSO at 100-fold of the final concentration. The strains were inoculated with 5 × 10^5 cfu/mL in 96-well plates (each 100 μL/well), and 1 μL of DMSO solutions of the samples were added (contained less than 1% DMSO). The plates were incubated at 37 °C for 18 h and then MICs were determined. MICs of stable analogues in Table 1 were the highest value in three trials. MICs in Supplementary Table 1 were determined in one trial.  Fig. 2 Results of biological evaluations of hydrazone library. a General structures of hydrazine fragment moiety are shown. Each hydrazine class are represented by different colours (green; BZ, cyan; PA, grey; AC, yellow; AA, orange; LA). b–h MraY inhibitory activity and antibacterial activity of the hydrazone library. The bar graphs show the relative enzyme activity with DMSO as 100% when the compound is treated at given concentration (b,c; TUN at 100 nM, d,e; MRY at 10 nM, f.g; MRD at 100 nM, h; CAP at 1000 nM. n = 1), with the lower bars indicating higher inhibitory activity. The colour of the bars corresponds to Fig. 2a. […] Data of control compounds (van: vancomycin, col: colistin) are shown left column in each panel. E. faecium ATCC 35667, S. aureus ATCC 29213, P. aeruginosa ATCC 27853, K. pneumoniae ATCC 13883, E. cloacae ATCC 13047, A. baumannii ATCC 19606, E. coli ATCC 25922.

K. pneumoniae ATCC 13883 = test system: T14, K. pneumoniae ATCC 13883; details: Klebsiella pneumoniae, ATCC13883
T14 construct: ATCC 13883
Procedure: as §3

P. aeruginosa ATCC 27853 = test system: T15, P. aeruginosa ATCC 27853; details: Pseudomonas aeruginosa, ATCC27853
T15 construct: ATCC 27853
Procedure: as §3

A. baumannii ATCC 19606 = test system: T16, A. baumannii ATCC 19606; details: Acinetobacter baumannii, ATCC19606
T16 construct: ATCC 19606
Procedure: as §3

S. aureus ATCC 29213 [8] = test system: T12, S. aureus ATCC 29213; details: Staphylococcus aureus, ATCC29213
Procedure: as §3

SMILES | MIC (Enterococcus faecalis 30) [µg/mL] | MIC [2] [µg/mL] | MIC (Enterococcus faecalis 29) [µg/mL] | MIC (Enterococcus faecium 2) [µg/mL] | MIC (Enterococcus faecalis 25) [µg/mL] | MIC (Enterococcus faecalis 24) [µg/mL] | MIC (E. coli ATCC 25922) [µM] | MIC (K. pneumoniae ATCC 13883) [µM] | MIC (P. aeruginosa ATCC 27853) [µM] | MIC (A. baumannii ATCC 19606) [µM] | MIC (S. aureus ATCC 29213 [8]) [µM] | also measured
CC1(C)S[C@@H]2[C@H](NC(=O)[C@H](N)c3ccccc3)C(=O)N2[C@H]1C(=O)O [ampicillin] | 0.5 (≈ 1.43 µM) | 16 (≈ 45.8 µM) | 1 (≈ 2.86 µM) | 128 (≈ 366 µM) | 1 (≈ 2.86 µM) | 0.5 (≈ 1.43 µM) | 50 (≈ 17.5 µg/mL) | > 50 | > 50 | 50 (≈ 17.5 µg/mL) | 5 (≈ 1.75 µg/mL) | MIC [1]: 16 µg/mL (≈ 45.8 µM); MIC (E. faecium ATCC 35667; read-out: ampicillin MIC): 1 µg/mL (≈ 2.86 µM); MIC ([3]; read-out: ampicillin MIC): 1 µg/mL (≈ 2.86 µM); MIC ([4]; read-out: ampicillin MIC): 4 µg/mL (≈ 11.4 µM); MIC ([5]; read-out: ampicillin MIC): 128 µg/mL (≈ 366 µM); MIC ([6]; read-out: ampicillin MIC): 128 µg/mL (≈ 366 µM); MIC (S. aureus ATCC 29213 [7]; read-out: ampicillin MIC): 1 µg/mL (≈ 2.86 µM)
CN[C@H](CC(C)C)C(=O)N[C@H]1C(=O)N[C@@H](CC(N)=O)C(=O)N[C@H]2C(=O)N[C@H]3C(=O)N[C@H](C(=O)N[C@H](C(=O)O)c4cc(O)cc(O)c4-c4cc3ccc4O)[C@H](O)c3ccc(c(Cl)c3)Oc3cc2cc(c3O[C@@H]2O[C@H](CO)[C@@H](O)[C@H](O)[C@H]2O[C@H]2C[C@](C)(N)[C@H](O)[C@H](C)O2)Oc2ccc(cc2Cl)[C@H]1O [vancomycin] | 1 (≈ 0.69 µM) | 2 (≈ 1.38 µM) | 1 (≈ 0.69 µM) | 1 (≈ 0.69 µM) | 1 (≈ 0.69 µM) | 1 (≈ 0.69 µM) | > 50 | > 50 | > 50 | 50 (≈ 72.5 µg/mL) | < 0.5 | MIC (E. faecium ATCC 35667; read-out: vancomycin MIC): 1 µg/mL (≈ 0.69 µM); MIC ([3]; read-out: vancomycin MIC): 128 µg/mL (≈ 88.3 µM); MIC ([4]; read-out: vancomycin MIC): 1 µg/mL (≈ 0.69 µM); MIC ([5]; read-out: vancomycin MIC): 128 µg/mL (≈ 88.3 µM); MIC ([6]; read-out: vancomycin MIC): > 128 µg/mL; MIC (S. aureus ATCC 29213 [7]; read-out: vancomycin MIC): 1 µg/mL (≈ 0.69 µM)

Source: publication PMC11178787, “Development of a natural product optimization strategy for inhibitors against MraY, a promising antibacterial target” (Nature Communications, 2024)
